Measured values reported in PMC11820896, “New Compounds with Enhanced Biological Activity Through the Strategic Introduction of Silylated Groups into Hydroxystearic Acids” (Molecules, 2025).

What was measured:
HT29 cells [1] = test: Western blot of tyrosine residue phosphorylation; type: cell-based, human; settings: most at proteins above 50 KDa
Protocol: HT29 cells were seeded at a density of 5.0 × 10^4 cells/cm^2 in a Petri dish and treated with 50 nM of compound 4 for 48 h. Cells were then washed with PBS and incubated with the lysis buffer radio immunoprecipitation assay (RIPA) at 4 °C for 15 min with agitation. The proteins were quantified using the Bio-Rad protein assay (Bio-Rad, Hercules, CA, USA) and analyzed by SDS-PAGE and Western blot.
For the analysis of protein phosphorylation, protein samples (30 μg) were separated on 12% SDS-PAGE in Tris-glycine buffer by electrophoresis at 200 V for 1 h. […] Densitometric analysis was performed with ImageLab 6.1 software (Bio-Rad, Hercules, CA, USA), and bands were normalized to the respective total protein content. For SCD1 analysis, protein samples were resolved on a 10% gel in MOPS buffer at 200 V for 45 min. After electrophoresis and Western blot, the nitrocellulose membrane was incubated overnight at 4 °C with primary antibody anti-SCD1 (Biorbyt, Durham, NC, USA) diluted in PBS-TWEEN 20 0.1%. The membrane was incubated for 1 h with a secondary horseradish peroxidase-conjugated antibody (GE Healthcare, Chicago, IL, USA) and then detected as described above. Quantification was completed by a Fluor-S Max MultiImager (Bio-Rad, Hercules, CA, USA) using a β-tubulin signal as a control.

HT29 cells [2] = test: Neutral lipid staining (LipidTOX), confocal microscopy; type: cell-based, human; settings: 50 nM, 48 h
Protocol: HT29 cells were grown on glass coverslips, treated as described above, and then washed three times with PBS. The intracellular accumulation of neutral lipids was assessed using LipidTOX™ Red Neutral Lipid Dye (Thermo Fisher Scientific, Waltham, MA, USA) according to the manufacturer’s indications. Specimens embedded in Mowiol were analyzed by confocal microscopy using a Nikon C1si confocal microscope (Nikon, Tokyo, Japan). Fluorescence was excited with a laser tuned at 595 nm, and detected at 650 nm.

HT29 cells [3] = test: Mitochondrial potential by JC-1 staining; type: cell-based, human; settings: 24 h treatment
Protocol: JC-1 is a dye that is permeable to alive cells and is accumulated in the anionic mitochondrial matrix indicating the level of mitochondrial potential. When present at low concentrations, the JC-1 monomer fluorescence is green (around 535 nm), while at increased concentration, it can aggregate and fluoresces in the red (600 nm). The ratio between the red fluorescence and the green one is directly proportional to the mitochondrial activity. […] Negative controls were treated in the same way, but JC-1 was not added to these samples. The plates were read on the Ensight plate reader, exciting the red fluorescence at 506 nm and the green one at 488 nm, while the emission was, respectively, read at 595 nm and 535 nm, and the ratio between the red and green fluorescence was calculated.

HCT116 = test: MTT assay, HCT116 cells; type: cell-based, human
Protocol: Cells were seeded in a 96-well culture plastic plate (Sarsted, Milan, Italy), at 5 × 10^4 cells/well and, after 24 h, were exposed to increasing concentrations of the different compounds (from 1 nM to 500 nM) dissolved in RPMI 1640 medium. An MTT assay was performed according to […] al.. The absorbance at 570 nm was measured using a multi-well plate reader (Tecan, Männedorf, Switzerland), and data were analyzed by Prism GraphPad 8 software and expressed as IC50 nM.

U2OS = test: MTT assay, U2OS cells; type: cell-based; settings: Homo sapiens, means of four experiments, na = not active, read-out: In vitro cytotoxic activity (IC50), U2OS
Protocol: The human colorectal adenocarcinoma (Caco-2), human colorectal adenocarcinoma (HT29), normal human intestinal (I407), human cervical cancer (HeLa), human breast cancer (MCF7), human bone osteosarcoma (U2OS), and human acute T-cell leukemia (Jurkat J6) cell lines were purchased from American Type Culture Collection (ATCC, Manassas, VA, USA). Cells were cultured in RPMI 1640 medium (Labtek Eurobio, Milan, Italy), supplemented with 10% FCS (Euroclone, Milano, Italy) and 2 mM L-glutamine (Sigma-Aldrich, Milano, Italy), at 37 °C and in a 5% CO2 atmosphere. The compounds were dissolved in DMSO in a 30–40 mM stock solution. In cell treatments, the final DMSO concentration never exceeded 0.1%.
Cells were seeded in a 96-well culture plastic plate (Sarsted, Milan, Italy), at 5 × 10^4 cells/well and, after 24 h, were exposed to increasing concentrations of the different compounds (from 1 nM to 500 nM) dissolved in RPMI 1640 medium. An MTT assay was performed according to Micheletti et al..
The absorbance at 570 nm was measured using a multi-well plate reader (Tecan, Männedorf, Switzerland), and data were analyzed by Prism GraphPad 8 software and expressed as IC50 nM.

HT29 cells [4] = test: ROS assay (DClFDA staining); type: cell-based, human; settings: 24 h treatment
Protocol: ROS were detected by DClFDA staining. This probe is not fluorescent and is permeable to alive cells, where the acetometoxyesther is cleaved by the […] intracellular estherases. This product is made fluorescent by the concomitant action of ROS, which peroxidize the molecule. The intensity of the fluorescence is, therefore, proportional to the production of intracellular ROS. HT29 cells were grown on a 96-well black plate, treated for 24 h with 4, washed in Hanks’ buffer, stained with 2 µM DClFDA, and incubated at 37 °C in the dark for 30 min. Negative controls were treated in the same way, but DClFDA was not added to these samples. The cells were washed in fresh Hanks’ buffer and resuspended in Hanks’ buffer containing Hoechst 33342 1 µg/mL to stain cell nuclei, to evaluate the cell density in the wells. The fluorescences were read with the plate reader Ensight (Perkin Elmer, Waltham, MA, USA) with excitation wavelengths, respectively, 488 nm for DClF and 360 nm for Hoechst and emission wavelength 535 nm for DClF and 454 for Hoechst 33342. The intensity of DClF fluorescence was normalized on Hoechst fluorescence and is expressed in Arbitrary Units (AU).

For `CCCCCCCCC[C@H](CCCCCCCC(=O)O)O[Si](C)(C)C(C)(C)C` [Compound 4, (R)-9-((tert-butyldimethylsilyl)oxy)octadecanoic acid], the “phosphorylation levels at tyrosine residues of proteins” value (HT29 cells [1]) was “decrease in phosphorylation levels”, the “accumulation of lipid droplets (neutral lipids)” value (HT29 cells [2]) was “significantly reduces” and the “change in mitochondrial potential” value (HT29 cells [3]) was “does not lead to a change”. For the same molecule, the IC50 (HCT116; Homo sapiens, HCT-116, MTT after 24 h of treatment, means of four experiments) was 21.49 ± 0.16 nM, the “S.I. (Selective Index), HCT116” value (HCT116; versus normal I407 cells) was 2.88 and the IC50 (U2OS) was 36.81 ± 0.18 nM. The “change in ROS content” value (HT29 cells [4]) was “does not lead to a change”.
